From US20090023721A1, “Novel Substituted Tetracyclic Tetrahydrofuran, Pyrrolidine and Tetrahydrothiophene Derivatives and Their Use as a Medicament” (priority 2005, published 2009)

Experiments:
[1] = molecular target: T1, human cloned 5-HT2A receptor, expressed in L929 cells (Homo sapiens, UniProt P28223); test: In vitro radioligand binding affinity for 5-HT2A receptor ([125I]R91150); details: human cloned 5-HT2A receptor in L929 cells, [125I]R91150; for IC50: read-out: h-5HT2A (converted)
T1 construct: expressed in transfected cells; host or cells: L929 cells
T1 sequence (P28223 whole entry): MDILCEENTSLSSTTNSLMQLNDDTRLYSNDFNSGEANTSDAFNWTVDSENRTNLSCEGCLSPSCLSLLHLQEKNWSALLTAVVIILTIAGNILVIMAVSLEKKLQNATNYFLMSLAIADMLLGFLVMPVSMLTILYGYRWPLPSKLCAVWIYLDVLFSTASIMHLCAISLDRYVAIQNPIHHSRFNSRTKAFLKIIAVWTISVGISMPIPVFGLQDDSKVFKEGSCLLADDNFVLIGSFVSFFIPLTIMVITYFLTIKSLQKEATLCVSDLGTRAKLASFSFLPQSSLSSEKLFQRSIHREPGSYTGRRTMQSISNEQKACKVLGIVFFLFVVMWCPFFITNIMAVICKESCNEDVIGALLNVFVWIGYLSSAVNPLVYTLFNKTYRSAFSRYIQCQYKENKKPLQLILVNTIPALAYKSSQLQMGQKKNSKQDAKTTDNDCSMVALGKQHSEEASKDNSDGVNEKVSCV
Experimental: The interaction of the compounds of Formula (I) with 5-HT2A and 5-HT2C receptors was assessed in in vitro radioligand binding experiments. In general, a low concentration of a radioligand with a high binding affinity for the receptor is incubated with a sample of a tissue preparation enriched in a particular receptor (1 to 5 mg tissue) in a buffered medium (0.2 to 5 ml). During the incubation, the radioligands bind to the receptor. When equilibrium of binding is reached, the receptor bound radioactivity is separated from the non-bound radioactivity, and the receptor bound activity is counted. The interaction of the test compounds with the receptors is assessed in competition binding experiments. Various concentrations of the test compound are added to the incubation mixture containing the tissue preparation and the radioligand. Binding of the radioligand will be inhibited by the test compound in proportion to its binding affinity and its concentration. The affinities of the compounds for the 5-HT2 receptors were measured by means of radioligand binding studies conducted with: (a) human cloned 5-HT2A receptor, expressed in L929 cells using [^125I]R91150 as radioligand and (b) human cloned 5-HT2C receptor, expressed in CHO cells using [^3H]mesulergine as radioligand.

[2] = molecular target: T2, human cloned 5-HT2C receptor, expressed in CHO cells (Homo sapiens, UniProt P28335); test: In vitro radioligand binding affinity for 5-HT2C receptor ([3H]mesulergine); details: human cloned 5-HT2C receptor in CHO cells, [3H]mesulergine; for IC50: read-out: h-5HT2C (converted)
T2 construct: expressed in transfected cells; host or cells: CHO cells
T2 sequence (P28335 33-458): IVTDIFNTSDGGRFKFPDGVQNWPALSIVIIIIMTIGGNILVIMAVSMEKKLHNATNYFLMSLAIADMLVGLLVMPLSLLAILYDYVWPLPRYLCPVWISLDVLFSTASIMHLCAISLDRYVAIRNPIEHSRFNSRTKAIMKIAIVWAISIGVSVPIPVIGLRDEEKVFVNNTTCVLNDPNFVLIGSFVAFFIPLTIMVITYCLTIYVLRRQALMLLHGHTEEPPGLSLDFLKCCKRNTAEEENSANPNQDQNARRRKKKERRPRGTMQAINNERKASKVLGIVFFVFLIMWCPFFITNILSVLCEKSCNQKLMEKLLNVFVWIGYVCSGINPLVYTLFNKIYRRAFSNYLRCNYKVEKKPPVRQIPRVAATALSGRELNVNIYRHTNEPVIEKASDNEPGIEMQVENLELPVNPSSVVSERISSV
Experimental: The interaction of the compounds of Formula (I) with 5-HT2A and 5-HT2C receptors was assessed in in vitro radioligand binding experiments. […] During the incubation, the radioligands bind to the receptor. When equilibrium of binding is reached, the receptor bound radioactivity is separated from the non-bound radioactivity, and the receptor bound activity is counted. The interaction of the test compounds with the receptors is assessed in competition binding experiments. Various concentrations of the test compound are added to the incubation mixture containing the tissue preparation and the radioligand. Binding of the radioligand will be inhibited by the test compound in proportion to its binding affinity and its concentration.

NET = molecular target: T3, NET (Rattus norvegicus, UniProt Q9WTR4); test: In vitro determination of NET reuptake inhibition ([3H]Nixosetine binding, rat brain cortex membranes)
T3 construct: Cortex from rat brain was collected and homogenised; from tissue; host or cells: rat brain cortex membranes
T3 sequence (Q9WTR4 1-597): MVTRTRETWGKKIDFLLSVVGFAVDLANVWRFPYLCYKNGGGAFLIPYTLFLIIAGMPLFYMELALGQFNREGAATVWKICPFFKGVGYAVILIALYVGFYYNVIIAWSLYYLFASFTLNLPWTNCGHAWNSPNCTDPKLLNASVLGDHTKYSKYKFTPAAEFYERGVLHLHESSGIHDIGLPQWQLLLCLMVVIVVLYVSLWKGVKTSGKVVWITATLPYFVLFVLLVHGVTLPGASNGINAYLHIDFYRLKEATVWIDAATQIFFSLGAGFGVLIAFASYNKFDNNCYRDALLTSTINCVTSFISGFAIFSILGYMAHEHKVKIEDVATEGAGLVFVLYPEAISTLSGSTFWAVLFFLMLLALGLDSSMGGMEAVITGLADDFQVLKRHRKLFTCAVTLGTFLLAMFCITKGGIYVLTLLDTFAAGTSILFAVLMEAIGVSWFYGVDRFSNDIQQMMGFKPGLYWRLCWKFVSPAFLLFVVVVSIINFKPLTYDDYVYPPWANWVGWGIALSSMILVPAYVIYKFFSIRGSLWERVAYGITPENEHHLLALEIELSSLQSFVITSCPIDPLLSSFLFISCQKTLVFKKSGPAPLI
Experimental: Cortex from rat brain was collected and homogenised using an Ultra-Turrax T25 and a Dual homogeniser in ice-cold homogenising buffer containing Tris, NaCl and KCl (50 mM, 120 mM and 5 mM, respectively, pH 7.4) prior to dilution to an appropriate protein concentration optimised for specific and non-specific binding. […] Membrane-bound activity was detected by filtration through a Packard Filtermate harvester onto GF/B Unifilterplates, washed with ice-cold Tris-HCl buffer, containing NaCl and KCl (50 mM, 120 mM and 4 mM; pH 7.4; 6×0.5 ml). Filters were allowed to dry for 24 h before adding scintillation fluid. Scintillation fluid was allowed to saturate filters for 24 h before counting in a Topcount scintillation counter. Percentage specific bound and competition binding curves were calculated using S-Plus software (Insightful).

[3] = molecular target: T4, human Dopamine D2L receptor (Homo sapiens, UniProt P14416); test: In vitro binding affinity for human D2L receptor ([3H]Spiperone); details: human D2L receptor-transfected CHO cell membranes, [3H]Spiperone; for IC50: read-out: h-D2L (converted)
T4 construct: expressed in transfected cells; host or cells: CHO cells (frozen membranes)
T4 sequence (P14416 whole entry): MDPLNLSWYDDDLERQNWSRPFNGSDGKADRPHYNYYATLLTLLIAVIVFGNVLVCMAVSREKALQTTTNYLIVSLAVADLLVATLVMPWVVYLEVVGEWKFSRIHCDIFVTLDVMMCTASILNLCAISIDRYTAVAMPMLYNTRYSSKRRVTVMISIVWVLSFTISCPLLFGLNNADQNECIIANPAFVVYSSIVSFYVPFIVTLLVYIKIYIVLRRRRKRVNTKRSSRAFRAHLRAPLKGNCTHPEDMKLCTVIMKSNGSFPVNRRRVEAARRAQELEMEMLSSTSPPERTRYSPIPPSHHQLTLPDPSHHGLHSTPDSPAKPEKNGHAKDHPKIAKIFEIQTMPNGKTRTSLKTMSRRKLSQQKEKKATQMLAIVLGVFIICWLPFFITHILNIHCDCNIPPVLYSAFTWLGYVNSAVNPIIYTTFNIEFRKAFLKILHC
Experimental: Frozen membranes of human Dopamine D2L receptor-transfected CHO cells were thawed, briefly homogenised using an Ultra-Turrax T25 homogeniser and diluted in Tris-HCl assay buffer containing NaCl, CaCl2, MgCl2, KCl (50, 120, 2, 1, and 5 mM respectively, adjusted to pH 7.7 with HCl) to an appropriate protein concentration optimised for specific and non-specific binding. Radioligand [^3H]Spiperone (NEN, specific activity ˜70 Ci/mmol) was diluted in assay buffer at a concentration of 2 nmol/L. Prepared radioligand (50 μl), along with 50 μl of either the 10% DMSO control, Butaclamol (10-6 mol/l final concentration), or compound of interest, was then incubated (30 min, 37° C.) with 400 μl of the prepared membrane solution. Membrane-bound activity was filtered through a Packard Filtermate harvester onto GF/B Unifilterplates and washed with ice-cold Tris-HCl buffer (50 mM; pH 7.7; 6×0.5 ml). Filters were allowed to dry before adding scintillation fluid and counting in a Topcount scintillation counter. Percentage specific bound and competition binding curves were calculated using S-Plus software (Insightful).

Structure (SMILES) | IC50 [1] [nM] | IC50 [2] [nM] | IC50 (NET) [nM] | IC50 [3] [nM] | h-5HT2A [1] | h-5HT2C [2] | NET Reuptake Inhibition (NET) | h-D2L [3]
CC(=O)N1[C@@H](CN(C)C)C[C@@H]2c3ccccc3Cc3ccc(F)cc3[C@H]21 [36b, [(2R,3aR, 1 2bS)-1-acetyl-11-fluoro-1,2,3,3a,8,12b-hexahydrodibenzo[3,4:6,7]cyclohepta[1,2-b]pyrrol-2-yl]-N,N-dimethylmethanamine] | > 1000 | > 1000 | 3890 | > 1000 |  |  |  | 
CN(C)C[C@H]1C[C@@H]2c3ccccc3Cc3ccc(F)cc3[C@H]2N1C=O [36c] |  |  |  |  | 6.26 | 7.11 | 6.65 | 5.31
CN(C)C[C@H]1C[C@@H]2c3ccccc3Cc3ccc(F)cc3[C@H]2N1 [37a, [(2R,3aR,12bS)-11-fluoro-1,2,3,3a,8,12b-hexahydrodibenzo[3,4:6,7]cyclohepta[1,2-b]-pyrrol-2-yl]-N,N-dimethylmethanamine] | 44.7 | 50.1 | 7.94 | 355 |  |  |  | 
CN1C[C@@H]2C[C@@H]3c4ccccc4Cc4ccc(F)cc4[C@H]3N2C1 [compound 1, (4aS,13bR,14aS)-6-fluoro-2-methyl-1,2,3,4a,9,13b,14,14a-octahydrodibenzo-[3′,4′:6′,7′]cyclohepta[1′,2′:4,5]pyrrolo[1,2-c]imidazole] | 115 | 151 | 115 | 2240 |  |  |  | 
Fc1ccc2c(c1)[C@@H]1[C@H](C[C@H]3CNC(=S)N31)c1ccccc1C2 [compound 3, (4aS,13bR,14aS)-6-fluoro-1,4a,9,13b,14,14a-hexahydrodibenzo-[3′,4′:6′,7′]cyclohepta-[1′,2′:4,5]pyrrolo[1,2-c]imidazole-3(2H)-thione] | > 1000 | 240 |  | > 1000 |  |  | 5.24 | 
CN1CC(=O)N2[C@@H](C[C@@H]3c4ccccc4Cc4ccc(F)cc4[C@H]32)C1 [compound 4, (5aS,14bR,15aS)-7-fluoro-2-methyl-1,2,3,5a,10,14b,15,15a-octahydro-4H-dibenzo [3′,4′:6′,7′]cyclohepta[1′,2′:4,5]pyrrolo[1,2-a]pyrazin-4-one] | > 1000 | > 1000 |  | > 1000 |  |  | <5 | 
CN1C[C@H]2C[C@@H]3c4ccccc4Cc4ccc(F)cc4[C@H]3N2C1=O [compound 7] | > 1000 | > 1000 | 891 | > 1000 |  |  |  | 
CSC1=NC[C@H]2C[C@@H]3c4ccccc4Cc4ccc(F)cc4[C@H]3N12 [compound 9, (4aS,13bR,14aR)-6-fluoro-3-(methylsulfanyl)-1,4a,9,13b,14,14a-hexahydrodibenzo-[3′,4′:6′,7′]cyclohepta[1′,2′:4,5]pyrrolo[1,2-c]imidazole] | > 1000 | > 1000 | 3980 | > 1000 |  |  |  | 
COCC(=O)N1[C@@H](CN(C)C)C[C@@H]2c3ccccc3Cc3ccc(F)cc3[C@H]21 [compound 10, [(2R,3aR,12bS)-11-fluoro-1-(methoxyacetyl)-1,2,3,3a,8,12b-hexahydrodibenzo[3 ,4:6,7]cyclohepta[1,2-b]pyrrol-2-yl]-N,N-dimethylmethanamine] | 692 | 427 | 4790 | > 1000 |  |  |  | 
O=C1NC[C@@H]2C[C@@H]3c4ccccc4Cc4ccc(F)cc4[C@H]3N12 [compound 15, (4aS,13bR,14aS)-6-fluoro-1,4a,9,13b,14,14a-hexahydrodibenzo[3′,4′:6′,7′]cyclohepta-[1′,2′:4,5]pyrrolo[1,2-c]imidazol-3(2H)-one] | 8320 | 2340 | 2400 | > 10000 |  |  |  | 
CN1C[C@@H]2C[C@@H]3c4ccccc4Cc4ccc(F)cc4[C@H]3N2C1=O [compound 16, (4aS,13bR,14aS)-6-fluoro-2-methyl-1,4a,9,13b,14,14a-hexahydrodibenzo[3′,4′:6′,7′]-cyclohepta[1′,2′:4,5]pyrrolo[1,2-c]imidazol-3(2H)-one] | > 10000 | > 10000 | > 10000 | > 10000 |  |  |  | 
CN(C)C[C@H]1C[C@@H]2c3ccccc3Oc3ccc(F)cc3[C@H]2N1 [compound 17, [(2R,3aR,12bS)-11-fluoro-2,3,3a,12b-tetrahydro-lH-dibenzo[2,3 :6,7]oxepino[4,5-b]pyrrol-2-yl]-N,N-dimethylmethanamine] | 575 | 501 | 7.41 | 2340 |  |  |  | 
CN(C)C[C@H]1C[C@@H]2c3ccccc3Cc3ccc(F)cc3[C@H]2S1 [compound 23, [(2R,3aR,12bS)-11-fluoro-3,3a,8,12b-tetrahydro-2H-dibenzo[3,4:6,7]cyclohepta[1,2-b]thien-2-yl]-N,N-dimethylmethanamine] | 661 | 229 | 28.2 | 5010 |  |  |  | 
CN(C)C[C@@H]1C[C@@H]2c3ccccc3Cc3ccc(F)cc3[C@H]2[S@@+]1[O-] [compound 26, [(2S,3aR,12bS)-11-fluoro-1-oxido-3,3a,8,12b-tetrahydro-2H-dibenzo[3,4:6,7]-cyclohepta[1,2-b]thien-2-yl]-N,N-dimethylmethanamine] | > 10000 | > 10000 | > 10000 | > 10000 |  |  |  | 
CNC[C@H]1C[C@@H]2c3ccccc3Cc3ccc(F)cc3[C@H]2N1C=O [compound 38, (2R,3aR,12bS)-11-fluoro-2-[(methylamino)methyll]-3,3a,8,12b-tetrahydrodibenzo-[3,4:6,7]cyclohepta[1,2-b]pyrrole-1 (2H)-carbaldehyde] | 631 | 186 | 490 | 7080 |  |  |  | 
COCCN1[C@@H](CN(C)C)C[C@@H]2c3ccccc3Cc3ccc(F)cc3[C@H]21 [compound 40, [(2R,3aR,12bS)-11-Fluoro-1-(2-methoxyethyl)-1,2,3,3a,8,12b-hexahydrodibenzo-[3,4:6,7]-cyclohepta[1,2-b]pyrrol-2-yl]-N,N-dimethylmethanamine] | 372 | 263 | 479 | > 1000 |  |  |  | 
CNC[C@H]1CC[C@@H]2c3ccccc3Cc3ccc(F)cc3[C@H]2O1 [compound 46, [(2R,4aR,13bS)-12-fluoro-2,3,4,4a,9,13b-hexahydrodibenzo[3,4:6,7]cyclohepta-[1,2-b]pyran-2-yl]-N-methylmethanamine] | 13.8 | 5.89 | 398 | 6310 |  |  |  | 
